Earlier results on 1 compound are cited in PMC4666608, “Metabolic Profiling of Chicken Embryos Exposed to Perfluorooctanoic Acid (PFOA) and Agonists to Peroxisome Proliferator-Activated Receptors” (PLoS ONE, 2015).

The subject of the data set is human PPARγ. Further details: method as in PMID 16038868. Particulars: reporter cell assay; read-out: EC50, activation of transcription through human PPARγ; cited from earlier work.

The structures appear in SMILES notation.

A word on the EC50: it is the concentration that produces a half-maximal response. On to `CN(CCOc1ccc(CC2SC(=O)NC2=O)cc1)c1ccccn1` (stereo not shown) [Rosiglitazone, rosiglitazone, reference compound], for which the concentration for a half-maximal effect (EC50) was 18 nM.
